One assay concerns MCF7 cells. The assay can be described thus: LDH release cytotoxicity assay, MCF7. Type of assay: cell-based. The note with it: Homo sapiens, 48 h, mean ± SD, read-out: In vitro cytotoxicity IC50 µM ± SD, MCF7. The protocol: (§1) HepG2 (Human liver carcinoma), HCT116 (human colorectal carcinoma), MCF7 (human breast adenocarcinoma), and the normal human skin fibroblast (BJ-1) cell lines were purchased from the american type culture collection (Rockville, MD, USA) and maintained in RPMI-1640 medium which was supplemented with 10% heat-inactivated FBS, 100U/ml penicillin and 100U/ml streptomycin. The cells were grown at 37 °C in a humidified atmosphere of 5% CO2. All experiments were conducted thrice in triplicate (n = 3). All the values were represented as means ± SD. Significant differences between the means of parameters as well as IC50s were determined by probit analysis using SPSS software program (SPSS Inc., Chicago, IL).
(§2) To determine the effect of each synthesized compound on membrane permeability in HepG2, MCF-7 and HCT116 cancer cell lines as well as BJ-1 normal cell line, a lactate dehydrogenase (LDH) release assay was used[29]–[33]. The cells were seeded in 24-well culture plates at a density of 1 × 10^4 cells/well in 500 µL volume and allowed to grow for 18 h before treatment. After treatment with a series of different concentrations of each compound or DOX (positive control), the plates were incubated for 48 h. Then, the supernatant (40 µL) was transferred to a new 96 well to determine LDH release and 6% triton X-100 (40 µL) was added to the original plate for determination of total LDH. An aliquot of 0.1 M potassium phosphate buffer (100 µL, pH 7.5) containing 4.6 mM pyruvic acid was mixed to the supernatant using repeated pipetting. Then, 0.1 M potassium phosphate buffer (100 µL, pH 7.5) containing 0.4 mg/mL reduced β-NADH was added to the wells. The kinetic changes were read for 1 min using ELISA microplate reader in absorbance at wavelength 340 nm. This procedure was repeated with 40 µL of the total cell lysate to determine total LDH. The percentage of LDH release was determined by dividing the LDH released into the media by the total LDH following cell lysis in the same well. The cell Passage numbers for MCF 7 = P13, Hep G2 = P15, HCT 116 = P 9.
(§3) All experiments were conducted in triplicate (n = 3). All the values were represented as mean ± SD. Significant differences between the means of parameters as well as IC50s were determined by probit analysis using SPSS software program (SPSS Inc., Chicago, IL).

Another assay relates to HepG2 cells. Description: LDH release cytotoxicity assay, HepG2. The format is cell-based. The note with it: Homo sapiens, 48 h, mean ± SD, read-out: In vitro cytotoxicity IC50 µM ± SD, HepG2. The procedure:
as §1, §2, §3

For the next assay, the system named is HCT116 cells. Description: LDH release cytotoxicity assay, HCT116. Type of assay: cell-based. The settings on record: Homo sapiens, HCT-116, 48 h, mean ± SD, read-out: In vitro cytotoxicity IC50 µM ± SD, HCT116. The protocol:
as §1, §2, §3
(In general: LDH in the medium is a marker of cell lysis.)

In the next assay the test system is beta-tubulin. Description: Inhibition of tubulin polymerization in MCF-7 cells (beta-tubulin SimpleStep ELISA). Type of assay: cell-based, human. The settings on record: MCF7 cells, concentration not given. The text has this:
Beta-tubulin in vitro simple step ELISA® (Enzyme-Linked Immunosorbent Assay) kit is designed for quantitative measurement of beta-tubulin protein in human cell and tissue homogenate extract samples.
The SimpleStep ELISA® employs an affinity tag labeled capture antibody and a reporter conjugated detector antibody which immunocapture the sample analyte in solution. This entire complex (capture antibody/analyte/detector antibody) is in turn immobilized via immunoaffinity of an anti-tag antibody coating the well. To perform the assay, samples or standards are added to the wells, followed by the antibody mix. After incubation, the wells are washed to remove unbound material. TMB development solution is added and during incubation is catalyzed by horseradish peroxidase (HRP), generating blue coloration. This reaction is then stopped by addition of stop solution completing any color change from blue to yellow. Signal is generated proportionally to the amount of bound analyte and the intensity is measured at 450 nm. Optionally, instead of the endpoint reading, development of TMB can be recorded kinetically at 600 nm. The concentration of beta-tubulin protein in the samples is determined by comparing the optical density (OD) of the samples to the standard curve. Each experiment was repeated two times (Table 2).
Background: An ELISA detects its analyte on a solid surface through an enzyme-linked reagent.

The subject of another assay is Topo II. The assay can be described thus: Inhibition of topoisomerase II in MCF-7 cells (TOP2B sandwich ELISA). The settings on record: MCF7 cells, concentration not given. The format is cell-based, human. The procedure: Mouse TOP2B/Topoisomerase II Beta ELISAKit (Sandwich ELISA) is designed for the quantitative measurement of Topo II enzyme.
This assay is based on the sandwich ELISA principle. Each well of the supplied microtiter plate has been pre-coated with a target specific capture antibody. Standards or samples are added to the wells, and the target antigen binds to the capture antibody. Unbound standard or sample is washed away. A biotin-conjugated detection antibody is then added which binds to the captured antigen. Unbound detection antibody is washed away. An avidin-horseradish peroxidase (HRP) conjugate is then added which binds to the biotin. Unbound avidin-HRP conjugate is washed away. A TMB substrate is then added which reacts with the HRP enzyme resulting in color development. A sulfuric acid stop solution is added to terminate color development reaction and then the optical density (OD) of the well is measured at a wavelength of 450 nm ± 2 nm. An OD standard curve is generated using known antigen concentrations; the OD of an unknown sample can then be compared to the standard curve to determine its antigen concentration. Each experiment was repeated two times (Table 3).

For the compound `COc1ccc(-c2cc(-c3cc(OC)cc(OC)c3)c(C#N)c(Cl)n2)cc1` [Compound 22, 2-Chloro-4-(3,5-dimethoxyphenyl)-6-(4-methoxyphenyl)nicotinonitrile], the IC50 – broadly, the concentration needed to halve the response being measured – was 2.6 ± 0.2 µM in the assay on MCF7 cells, 25.3 ± 2.3 µM in the assay on HepG2 cells and 36.8 ± 3.5 µM in the assay with HCT116 cells. The “tubulin polymerization % inhibition” value in the assay with beta-tubulin came to 70.9%. Also, in the assay with Topo II, the “Topo II % inhibition” value was found to be 42%.
In the case of `COc1ccc(-c2cc(-c3cc(OC)c(OC)c(OC)c3)c(C#N)c3nnnn23)cc1OC` [Compound 27, 5-(3,4-dimethoxyphenyl)-7-(3,4,5-trimethoxyphenyl)tetrazolo[1,5-a]pyridine-8-carbonitrile], the IC50 in the assay on MCF7 cells worked out at 2.5 ± 0.2 µM; in the assay on HepG2 cells it was 25.5 ± 2.4 µM; with HCT116 cells, 60.1 ± 6.2 µM. For the same compound, the “tubulin polymerization % inhibition” value with beta-tubulin is given as 49.8%.
As for `COc1ccc(-c2cc(-c3cc(OC)c(OC)c(OC)c3)c(C#N)c(N=P(c3ccccc3)(c3ccccc3)c3ccccc3)n2)cc1` [Compound 34, 6-(4-Methoxyphenyl)-4-(3,4,5-trimethoxyphenyl)-2-((triphenyl-λ^5-phosphaneylidene)amino)-nicotinonitrile], the concentration for half-maximal inhibition (IC50) came out at 5.1 ± 0.2 µM in the assay on MCF7 cells, 28.4 ± 2.3 µM in the assay with HepG2 cells and 49.9 ± 4.2 µM in the assay with HCT116 cells.
The matching figures for `COc1cc(-c2cc(-c3cc(OC)c(OC)c(OC)c3)n3nnnc3c2C#N)cc(OC)c1OC` [Compound 28, 5,7-bis(3,4,5-trimethoxyphenyl)tetrazolo[1,5-a]pyridine-8-carbonitrile]: 3 ± 0.2 µM, 29.9 ± 3.1 µM and 78.6 ± 5.9 µM.
The matching figures for `COc1cc(OC)cc(-c2cc(-c3ccc(OC)c(OC)c3)nc(Cl)c2C#N)c1` [Compound 21, 2-Chloro-6-(3,4-dimethoxyphenyl)-4-(3,5-dimethoxyphenyl)nicotinonitrile]: 2.8 ± 0.2 µM, 12.3 ± 1.5 µM and 48.1 ± 4.2 µM.
In the same order, the values of `COc1cc(-c2cc(-c3ccco3)c(C)c3nnnn23)cc(OC)c1OC` [Compound 32, 7-(furan-2-yl)-8-methyl-5-(3,4,5-trimethoxyphenyl)tetrazolo[1,5-a]pyridine] are 3 ± 0.3 µM, 28.2 ± 2.5 µM and 98 ± 8.6 µM.
For `COc1cccc2c1C(=O)c1c(O)c3c(c(O)c1C2=O)C[C@@](O)(C(=O)CO)C[C@@H]3O[C@H]1C[C@H](N)[C@H](O)[C@H](C)O1` [DOX, doxorubicin, reference compound], the IC50 in the assay on MCF7 cells worked out at 2.8 ± 0.3 µM; in the assay on HepG2 cells, 2.6 ± 0.2 µM; in the assay with HCT116 cells it was 12.5 ± 1.5 µM. The “Topo II % inhibition” value in the assay on Topo II stood at 81.6%.
Turning to `COc1ccc(-c2cc(-c3cc(OC)c(OC)c(OC)c3)c(C#N)c(Cl)n2)cc1OC` [Compound 19, 2-Chloro-6-(3,4-dimethoxyphenyl)-4-(3,4,5trimethoxyphenyl)nicotinonitrile], the IC50 is 2.7 ± 0.2 µM with MCF7 cells, 24.1 ± 2.2 µM in the assay with HepG2 cells and 44.1 ± 4.7 µM with HCT116 cells.
The matching figures for `COc1ccc(-c2cc(-c3cc(OC)cc(OC)c3)c(C#N)c3nnnn23)cc1` [Compound 30, 7-(3,5-dimethoxyphenyl)-5-(4-methoxyphenyl)tetrazolo[1,5-a]pyridine-8-carbonitrile]: 3.2 ± 0.2 µM, 27.1 ± 2.2 µM and 40.5 ± 3.3 µM.
In the case of `COc1cc(-c2cc(-c3cc(OC)c(OC)c(OC)c3)c(C#N)c(N=P(c3ccccc3)(c3ccccc3)c3ccccc3)n2)cc(OC)c1OC` [Compound 36, 4,6-Bis(3,4,5-trimethoxyphenyl)-2-((triphenyl-λ^5-phosphaneylidene)amino)nicotinonitrile], the IC50 stood at 3 ± 0.1 µM in the assay with MCF7 cells, 25.2 ± 2.1 µM in the assay with HepG2 cells and 41.7 ± 4.1 µM in the assay with HCT116 cells.
The matching figures for `COc1ccc(-c2cc(-c3cc(OC)c(OC)c(OC)c3)c(C#N)c(Cl)n2)cc1` [Compound 18, 2-Chloro-6-(4-methoxyphenyl)-4-(3,4,5-trimethoxyphenyl)nicotinonitrile]: 2.9 ± 0.2 µM, 26.2 ± 2.5 µM and 45.6 ± 4.1 µM.
`COc1cc(-c2cc(-c3ccco3)c(C#N)c(Cl)n2)cc(OC)c1OC` [Compound 24, 2-Chloro-4-(furan-2-yl)-6-(3,4,5-trimethoxyphenyl)nicotinonitrile]: the IC50 was found to be 2.5 ± 0.2 µM with MCF7 cells, 22.7 ± 2.1 µM with HepG2 cells and 49.3 ± 4.2 µM with HCT116 cells. Also, in the assay on beta-tubulin, the “tubulin polymerization % inhibition” value is on record as 55.4%. The “Topo II % inhibition” value in the assay on Topo II amounted to 55.3%.
As for `COc1ccc(-c2cc(-c3cc(OC)c(OC)c(OC)c3)c(C#N)c(N=P(c3ccccc3)(c3ccccc3)c3ccccc3)n2)cc1OC` [Compound 35, 6-(3,4-Dimethoxyphenyl)-4-(3,4,5-trimethoxyphenyl)-2-((triphenyl-λ^5-phosphaneylidene)-amino)nicotinonitrile], the figures for the 50% inhibitory concentration (IC50) in the assay on MCF7 cells, in the assay on HepG2 cells and in the assay on HCT116 cells were 2.7 ± 0.1 µM, 32.4 ± 3.1 µM and 57.6 ± 4.1 µM, respectively. Also, in the assay on beta-tubulin, the “tubulin polymerization % inhibition” value turned out to be 61.9%.
Consider `Cc1cc(-c2ccco2)c(C#N)c2nnnn12` [Compound 33, 7-(furan-2-yl)-5-methyltetrazolo[1,5-a]pyridine-8-carbonitrile], for which the IC50 in the assay with MCF7 cells was found to be 2.6 ± 0.2 µM; in the assay on HepG2 cells, 25.2 ± 2.5 µM; with HCT116 cells, 40.7 ± 3.9 µM. For the same compound, in the assay with beta-tubulin, the “tubulin polymerization % inhibition” value is 68.9%.
In the case of `COc1ccc(-c2cc(-c3ccc(OC)c(OC)c3)n3nnnc3c2C#N)cc1` [Compound 31, 5-(3,4-dimethoxyphenyl)-7-(4-methoxyphenyl)tetrazolo[1,5-a]pyridine-8-carbonitrile], the figures for the IC50 with MCF7 cells, in the assay with HepG2 cells and in the assay on HCT116 cells were 3.1 ± 0.3 µM, 25.7 ± 2.4 µM and 31 ± 2.5 µM, respectively.
The matching figures for `COc1ccc(-c2cc(-c3ccc(OC)c(OC)c3)nc(Cl)c2C#N)cc1` [Compound 23, 2-Chloro-6-(3,4-dimethoxyphenyl)-4-(4-methoxyphenyl)nicotinonitrile]: 2.6 ± 0.2 µM, 29.4 ± 2.3 µM and 49.1 ± 5.1 µM.
In the same order, the values of `COc1cc(OC)cc(-c2cc(-c3ccc(OC)c(OC)c3)n3nnnc3c2C#N)c1` [Compound 29, 5-(3,4-dimethoxyphenyl)-7-(3,5-dimethoxyphenyl)tetrazolo[1,5-a]pyridine-8-carbonitrile] are 3.1 ± 0.3 µM, 27.1 ± 2.5 µM and 55.4 ± 5.1 µM.
The matching figures for `COc1cc(-c2cc(-c3ccco3)c(C#N)c(N=P(c3ccccc3)(c3ccccc3)c3ccccc3)n2)cc(OC)c1OC` [Compound 40, 4-(Furan-2-yl)-6-(3,4,5-trimethoxyphenyl)-2-((triphenyl-λ^5-phosphaneylidene)amino)nicotino-nitrile]: 5.7 ± 0.2 µM, 27.7 ± 2.1 µM and 55.7 ± 4.9 µM.

The record behind these values is PMC13303826, “Nicotinonitrile based dual inhibitors of tubulin and topoisomerase II exhibit potent anticancer activity” (Scientific Reports, 2026).
